Source: Sander's compilation of Henry's law constants (doi:10.1016/j.atmosenv.2006.04.009)

Assay: Henry solubility constant Hcp at 298.15 K (mol/(m3 Pa))
Details: reference: Cetin et al. (2006)

Row | SMILES | Henry solubility constant Hcp
1 | Clc1ccc(C(c2ccc(Cl)cc2)C(Cl)(Cl)Cl)cc1 [1,1,1-trichloro-2,2-bis-(4-chlorophenyl)-ethane] | 0.9
2 | Clc1ccc(C(c2ccc(Cl)cc2)C(Cl)Cl)cc1 [1,1-dichloro-2,2-bis-(4-chlorophenyl)-ethane] | 0.91
3 | ClC(Cl)=C(c1ccc(Cl)cc1)c1ccc(Cl)cc1 [1,1-dichloro-2,2-bis-(4-chlorophenyl)-ethene] | 0.16
4 | ClC1=C(Cl)[C@]2(Cl)[C@H]3[C@H]([C@@H]4C=C[C@H]3C4)[C@@]1(Cl)C2(Cl)Cl [aldrin] | 0.022
5 | CCOP(=S)(OCC)Oc1nc(Cl)c(Cl)cc1Cl [chlorpyrifos] | 0.22
6 | ClC1=C(Cl)[C@]2(Cl)[C@@H]3[C@@H](Cl)[C@@H](Cl)C[C@@H]3[C@@]1(Cl)C2(Cl)Cl [cis-chlordane] | 0.15
7 | ClC1=C(Cl)C2(Cl)[C@H]3C(Cl)C(Cl)C(Cl)[C@H]3C1(Cl)C2(Cl)Cl (stereo partly drawn) [cis-nonachlor] | 1.4
8 | ClC1=C(Cl)[C@]2(Cl)[C@@H]3[C@@H]4C[C@@H]([C@H]5O[C@@H]45)[C@@H]3[C@@]1(Cl)C2(Cl)Cl [dieldrin] | 0.92
9 | ClC1=C(Cl)[C@]2(Cl)[C@@H]3[C@H]4C[C@H]([C@@H]5O[C@H]45)[C@@H]3[C@@]1(Cl)C2(Cl)Cl [endrin] | 1.8
10 | ClC1=C(Cl)C2(Cl)C3C(Cl)C=CC3C1(Cl)C2(Cl)Cl (stereo not given) [heptachlor] | 0.019
11 | ClC1=C(Cl)C2(Cl)C3C4OC4C(Cl)C3C1(Cl)C2(Cl)Cl (stereo not given) [heptachlorepoxide] | 0.5
12 | ClC1=C(Cl)[C@]2(Cl)[C@H]3[C@H](Cl)[C@@H](Cl)C[C@H]3[C@@]1(Cl)C2(Cl)Cl [trans-chlordane] | 0.063
13 | ClC1=C(Cl)C2(Cl)C3C(Cl)C(Cl)C(Cl)C3C1(Cl)C2(Cl)Cl (stereo not drawn) [trans-nonachlor] | 0.088
14 | ClC1C(Cl)C(Cl)C(Cl)C(Cl)C1Cl (stereo not drawn) [α-1,2,3,4,5,6-hexachlorocyclohexane] | 3
15 | ClC1C(Cl)C(Cl)C(Cl)C(Cl)C1Cl (stereo not given) [γ-1,2,3,4,5,6-hexachlorocyclohexane] | 3.9
